Experimental data from patent publication US8680047B2, “Fas peptide mimetics and uses thereof” (The Trustees of the University of Pennsylvania, priority 2002, dated 2014).
Positions of bridges follow the written chain, without caps; N, C: chain ends. Residues, ends and D or L forms follow the SMILES beside them. No end group written: not given here.

How the values were obtained:
[1] = tested on: FasL-sensitive Jurkat cells; assay: FasL-induced cytotoxicity assay in Jurkat cells ([3H]-thymidine incorporation); format: cell-based, human; settings: for inhibition of Fas-mediated cytotoxicity: Jurkat cells stimulated with soluble FasL-Flag, various concentrations of mimetic
Protocol: To evaluate the effect of mimetics on Fas-mediated cytotoxicity, FasL-sensitive Jurkat cells were stimulated with soluble FasL-Flag fusion protein in the presence or absence of various concentrations of mimetics. The inhibitory effects of mimetics on Fas-mediated cytotoxicity were consistent with the results of the FasL-binding inhibition (FIG. 4). […] A concentration of 1 mM Kp7-6 protected more than 90% cells from Fas-mediated cytotoxicity (FIG. 4). […] Large dose of Kp7-6 was used in this experiment for better signal-to-noise ratio. To determine if mimetics derived from other binding sites would potentially be able to interact synergistically to block the Kp7 surface, Kp7 was used in combination with mimetics.
Cytotoxicity assay. Twenty microliters of Jurkat cells at 1×10^5 cells/ml were plated in 96-well U-bottom plates. FasL-Flag (120 ng/ml in culture medium) was preincubated with equal volume of peptide sample in PBS for 1 h at 37° C., and 20 μl of mixture was added to each well. After an incubation period of 24 h, each culture was pulsed with 1 μCi of [^3H]-thymidine for 24 h before harvesting on glass fiber filters. Incorporation of the ^3H-thymidine obtained with culture medium alone and with 30 ng/ml of FasL was used as reference for 100% survival and 0% survival, respectively. Survival (%) by several doses of peptides was plotted. Incorporation of the radioactive label was measured by liquid scintillation counting (Wallac, Finland) and expressed as the arithmetic mean counts per minute (cpm) of triplicate cultures.

FasL = biological target: T1, FasL (Homo sapiens, UniProt P48023); assay: Surface plasmon resonance (BIAcore) analysis, immobilized FasL-Flag; format: binding; settings: FasL-Flag immobilized on sensor chip, 25° C.
T1 construct: Flag-tagged soluble human Fas ligand (FasL-Flag); purchased Kamiya Biomedical (Seattle, Wash.)
T1 sequence (P48023 130-281 limits assumed): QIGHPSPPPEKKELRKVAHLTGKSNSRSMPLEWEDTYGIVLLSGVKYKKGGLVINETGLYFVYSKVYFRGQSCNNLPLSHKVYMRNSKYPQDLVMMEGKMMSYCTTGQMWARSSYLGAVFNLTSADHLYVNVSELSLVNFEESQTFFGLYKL
Protocol: The kinetics of binding of Kp7-6, which mediated the best inhibitory activity to FasL, was performed using surface plasmon resonance (BIAcore™) analysis. […] The koff value is considered as an important indicator in the development of therapeutics with biological activity (Benveniste, M. et al. Br J Pharmacol 104, 207-221 (1991); Yiallouros, I. et al. Biochem J 331, 375-379 (1998)), and generally correlates with potent biological effects. (Moosmayer, D. et al. J Interferon Cytokine Res 16, 471-477 (1996)). […] (Berezov, A. et al. J Med Chem 44, 2565-2574 (2001)).
To assess the specificity of Kp7-6 binding interaction, Fas, FasL and TNFα were immobilized on a sensor chip. Kp7-6 bound to FasL but not to TNFα, which indicates Kp7-6 bound to FasL specifically (FIG. 3B). […] (Naismith, J. H. et al. Structure 4, 1251-1262 (1996)).
Biosensor analysis. All experiments were carried out on a BIAcore 3000 instrument (Biacore AG, Uppsala, Sweden) at 25° C. using PBS, pH 7.4, containing 0.005% surfactant P20 (Biacore AG) as the running buffer. FasL-Flag, Fas-Fc or TNFRI-Fc was immobilized on research-grade CM5 sensor chips (Biacore AG) using standard N-ethyl-N-dimethylaminopropyl carbodiimid/N-hydroxysuccinimide coupling. […] Data were analyzed with the BIA evaluation 3.0 software (Biacore AG). […]

[2] = tested on: Con A-induced hepatitis model; assay: Con A-induced hepatitis model, serum transaminase activity; format: in vivo, C57BL/6 mice; settings: IP pretreatment 30 min before Con A iv
Protocol: The biological activity of mimetic Kp7-6 was measured in vivo. FasL induced apoptosis is one of the primary and dominant pathways by which liver cells undergo apoptosis under various conditions such as viral infection, drug toxicity and other lesions. (Kakinuma, C. et al. Toxicol Pathol 27, 412-420 (1999); Famularo, G., et al. Med Hypotheses 53, 50-62 (1999); Gantner et al. supra). […] (Zhang, H. et al. Nat Biotechnol 18, 862-867 (2000); Song, E. et al. Nat Med (2003)). The antagonistic effect of Kp7-6 in vivo was tested using the Con A-induced hepatitis model. C57BL/6 mice were pretreated intraperitoneally (IP) with anti-FasL monoclonal antibody, Fas mimetic peptides or saline. After 30 min, animals were challenged intravenously with Con A or saline. The induction of liver damage and inflammatory hepatitis was evaluated by measuring the serum activities of alanine aminotransferase (ALT) and aspartate aminotransferase (AST) 12 h after Con A treatment.
Administration of Con A and Measurement of Serum Transaminase Activity. […]
Blood samples were collected from mice at 12 h after Con A injection, and the serum was taken by centrifugation. Serum activities of alanine aminotransferase (ALT) and aspartate aminotransferase (AST) were measured by Lippi-Guidi's method (Iatrozyme TA-LQ: Dia-Iatron Inc., Tokyo, Japan). […]

Row | Compound | inhibition of Fas-mediated cytotoxicity [1] | block of Con A-induced hepatic injury [2] | also measured
1 | N[C@@H](Cc1ccc(O)cc1)C(=O)N[C@H]1CSSC[C@@H](C(=O)N[C@@H](Cc2ccc(O)cc2)C(=O)O)NC(=O)[C@H](Cc2ccccc2)NC(=O)[C@H](Cc2c[nH]cn2)NC(=O)[C@H](CCC(=O)O)NC(=O)[C@H](CC(=O)O)NC1=O [Kp7-6, YCDEHFCY] (H-YCDEHFCY-OH; disulfide 2-7; N-terminus and C-terminus assumed) | dose-dependent inhibitory activity |  | cells protected from Fas-mediated cytotoxicity ([1]; 1 mM mimetic, Jurkat cells, FasL-Flag): more than 90%; koff (FasL; read-out: koff rate constant): 0.000765 s⁻¹; kon (FasL; read-out: kon rate constant): 68.5 M⁻¹ s⁻¹
2 | YCDEHGLCY (disulfide 2-8 (inferred)) [Kp7-7, exocyclic mimetic derived from Fas Kp7 loop] |  | protection of mice against Con A induced liver injury | 
3 | YCDEQFCY (disulfide 2-7 (inferred)) [Kp7-10, exocyclic mimetic derived from Fas Kp7 loop] | dose-dependent inhibition |  | synergy in combination with members of the Kp4 mimetics ([1]; Fas-mediated cytotoxicity, data not shown): Neither Kp7-6 nor Kp7-10 used in combination with members of the Kp4 mimetics showed any significant synergy
4 | YCNSTVCY (disulfide 2-7 (inferred)) [Kp1-1, exocyclic mimetic derived from Fas Kp1 loop] |  | did not block the hepatic injury | 
